Experiments:
[1] = tested on: triple-negative breast cancer cells; conditions: sequential but not simultaneous application of erlotinib and doxorubicin, time interval of about 24 hours; cited from earlier work
CD95-HeLa cells = test: Live-cell imaging with drug perfusion: CD95L-induced apoptosis under RL-optimized versus constant concentration trajectory; assay type: cell-based, human
Method: The experimental setup consisted of an automated live-cell microscope and infusion pumps for empty medium or CD95L stock solution placed inside a standard cell culture incubator. The microscope was combined with a surrounding, separable, autoclavable box for ensuring a sterile environment inside the incubator. Empty medium and the CD95L stock solution were guided through silicon tubes (inner diameter: 1 mm) connected to a t-shaped adapter piece. The t-adapter was connected with a microfluidic chip containing approximately 80,000 CD95-HeLa cells (human cervix carcinoma cell line overexpressing CD95 death receptors). Thereby, cells could be perfused by a mixture of CD95L stock solution and empty medium. For adjusting the CD95L concentration in each step of an experiment, a constant volume of 0.8 ml was infused. This volume comprised varying fractions of CD95L stock solution and empty medium. […] The total dose was set to 400 ng of CD95L according to a stock solution volume of 1.6 ml. Accordingly, cells could be perfused with CD95L at concentrations between zero and the stock concentration. During the experiment, images of the perfused cells were recorded every 3 minutes using the live-cell microscope. […]

In the case of COc1cccc2c1C(=O)c1c(O)c3c(c(O)c1C2=O)C[C@@](O)(C(=O)CO)C[C@@H]3O[C@H]1C[C@H](N)[C@H](O)[C@H](C)O1 [doxorubicin], the cell death [1] is given as “maximizes cell death”.

In the case of C#Cc1cccc(Nc2ncnc3cc(OCCOC)c(OCCOC)cc23)c1 [erlotinib], the cell death [1] is given as “maximizes cell death”.

B1: CD95L: CD95 cell death ligand; binds CD95 death receptors and induces apoptosis (protein, UniProt P48023 130-281, looked up)
Tumor necrosis factor ligand …: QIGHPSPPPEKKELRKVAHLTGKSNSRSMPLEWEDTYGIVLLSGVKYKKGGLVINETGLYFVYSKVYFRGQSCNNLPLSHKVYMRNSKYPQDLVMMEGKMMSYCTTGQMWARSSYLGAVFNLTSADHLYVNVSELSLVNFEESQTFFGLYKL
For B1, the “cell death kinetics (apoptotic cell fractions)” value (CD95-HeLa cells; first RL-optimized CD95L concentration trajectory vs constant 50 ng/ml, same total dose 400 ng, 180 minutes, FIG. 13F) was “substantially accelerated cell death kinetics” and the “cell death (apoptotic cell fractions)” value (CD95-HeLa cells; optimized CD95L trajectory from second RL iteration vs constant concentration or first-iteration trajectory, total dose 400 ng, FIG. 14G) was “accelerated cell death”.
